{"source": "ChEMBL document CHEMBL1201862", "about": "“PubChem BioAssay data set” (2004)", "key": {"[1]": {"molecular_target": "T1, Mannose-6-phosphate isomerase (Homo sapiens, UniProt P34949)", "T1 sequence (P34949 whole entry)": "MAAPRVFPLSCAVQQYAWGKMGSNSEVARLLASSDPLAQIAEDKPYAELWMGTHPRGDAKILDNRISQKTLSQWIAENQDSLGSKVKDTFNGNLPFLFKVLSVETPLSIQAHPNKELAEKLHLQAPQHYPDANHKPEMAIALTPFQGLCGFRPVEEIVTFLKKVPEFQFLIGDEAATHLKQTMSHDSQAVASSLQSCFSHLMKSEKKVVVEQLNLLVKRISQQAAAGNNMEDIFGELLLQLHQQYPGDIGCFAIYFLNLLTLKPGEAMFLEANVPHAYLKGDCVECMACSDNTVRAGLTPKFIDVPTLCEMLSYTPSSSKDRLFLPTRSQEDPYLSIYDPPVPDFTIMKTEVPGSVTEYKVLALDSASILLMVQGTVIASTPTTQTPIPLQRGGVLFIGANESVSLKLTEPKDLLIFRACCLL", "test": "MPI inhibition at elevated mannose 6-phosphate – biochemical, fluorescence intensity, high mannose 6-phosphate, primary screen (AID 1220)"}, "[2]": {"test": "IC50 of Artemis nuclease activity blockers – biochemical, fluorescence intensity, dose response (AID 720701);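 note: Artemis endonuclease enzyme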", "type": "functional"}, "[3]": {"molecular_target": "T1, Mannose-6-phosphate isomerase", "test": "MPI enzyme activity inhibition – biochemical, fluorescence intensity, coupled assay, primary screen (AID 1209)"}, "[4]": {"test": "alpha-synuclein stem-loop luciferase translation blockers – H4 neuroglioma cells, luminescence, confirmation (AID 1988)", "type": "functional, cell-based"}, "[5]": {"test": "Luminescence Cell-Based Dose Response HTS to Identify Inhibitors of 5'UTR Stem-Loop Driven Prion Protein mRNA Translation in H4 Neuroglioblastoma Cells. [Related pubchem assays: 1827 (Project Summary), 1813 (Primary HTS)]", "type": "functional"}, "[6]": {"test": "NIH3T3 cell viability loss – ATP luminescence, mouse fibroblasts, counter-screen, dose response (AID 2010);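 note: cells exposed to compound for about 90 hours before reading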", "type": "functional, cell-based"}, "[7]": {"test": "Trypanosoma cruzi growth suppression in host cells – NIH3T3 host cells, beta-gal luminescence, confirmation (AID 2044);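 note: intracellular parasites grown in NIH/3T3 mouse fibroblasts as host cells; luminescent beta-galactosidase reporter signal from transgenic T. cruzi replicating inside host cells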", "type": "functional, cell-based"}, "INS1": {"test_system": "INS1", "test": "INS-1E survival protection against cytokine death – cell-based, luminescence, retest, dose response (AID 449756);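 note: cell death triggered by IL-1 beta plus TNF-alpha plus IFN-gamma mixture; protective hits raise ATP signal compared with cytokine alone wells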", "type": "functional", "conditions": "Rattus norvegicus"}, "[8]": {"test": "luciferase reporter signal suppression in cells – H4 neuroglioma cells, luminescence, dose response (AID 1990)", "type": "functional, cell-based"}, "[9]": {"test": "Luminescence Cell-Based Dose Response to Identify Activators of Luciferase Translation or Activity in H4-C Neuroglioblastoma Cells. [Related pubchem assays: 1829 (Project Summary), 1814 (Primary HTS)]", "type": "functional"}, "[10]": {"test": "Luminescence Cell-Based Dose Confirmation to Identify Activators of 5'UTR Stem-Loop Driven Alpha-Synuclein mRNA Translation in H4 Neuroglioblastoma Cells. [Related pubchem assays: 1829 (Project Summary), 1814 (Primary HTS)]", "type": "functional"}, "H4": {"test_system": "H4", "test": "Luminescence Cell-Based Dose Response HTS to Identify Activators of 5'UTR Stem-Loop Driven Prion Protein mRNA Translation in H4 Neuroglioblastoma Cells. [Related pubchem assays: 1829 (Project Summary), 1814 (Primary HTS)]", "type": "functional", "conditions": "Homo sapiens"}, "[11]": {"test": "Luminescence Cell-Based Dose Response to Identify Activators of 5'UTR Stem-Loop Driven Prion Protein mRNA Translation in H4-C Neuroglioblastoma Cells. [Related pubchem assays: 1829 (Project Summary), 1814 (Primary HTS)]", "type": "functional"}, "[12]": {"test": "Luminescence Cell-Based Dose Response HTS to Identify Activators of Luciferase Translation or Activity in H4 […] Cells. [Related pubchem assays: 1829 (Project Summary), 1814 (Primary HTS)]", "type": "functional"}, "[13]": {"test": "Luminescence Cell-Based Dose Confirmation HTS to Identify Activators of 5'UTR Stem-Loop Driven Alpha-Synuclein mRNA Translation in H4 Neuroglioblastoma Cells. [Related pubchem assays: 1829 (Project Summary), 1814 (Primary HTS)]", "type": "functional"}, "[14]": {"molecular_target": "Mitogen-activated protein kinase 10 (Homo sapiens, UniProt P53779)", "sequence (P53779 whole entry)": "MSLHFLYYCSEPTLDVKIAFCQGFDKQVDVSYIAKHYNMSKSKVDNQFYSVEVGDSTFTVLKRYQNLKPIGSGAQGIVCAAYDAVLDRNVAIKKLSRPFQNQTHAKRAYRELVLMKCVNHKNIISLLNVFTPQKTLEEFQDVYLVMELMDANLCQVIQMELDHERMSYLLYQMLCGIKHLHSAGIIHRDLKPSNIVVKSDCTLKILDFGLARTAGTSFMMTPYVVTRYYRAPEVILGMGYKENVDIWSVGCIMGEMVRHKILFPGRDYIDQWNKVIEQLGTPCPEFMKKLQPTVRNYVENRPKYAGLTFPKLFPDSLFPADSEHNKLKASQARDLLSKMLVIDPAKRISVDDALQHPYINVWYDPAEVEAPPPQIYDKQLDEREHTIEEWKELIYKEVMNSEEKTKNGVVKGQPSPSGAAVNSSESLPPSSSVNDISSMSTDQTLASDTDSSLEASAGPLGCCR", "test": "Dose response biochemical screening assay for inhibitors of c-Jun N-Terminal Kinase 3 (JNK3). [Related pubchem assays: 746 ]"}, "Estrogen receptor beta": {"molecular_target": "Estrogen receptor beta (Homo sapiens, UniProt Q92731)", "sequence (Q92731 whole entry)": "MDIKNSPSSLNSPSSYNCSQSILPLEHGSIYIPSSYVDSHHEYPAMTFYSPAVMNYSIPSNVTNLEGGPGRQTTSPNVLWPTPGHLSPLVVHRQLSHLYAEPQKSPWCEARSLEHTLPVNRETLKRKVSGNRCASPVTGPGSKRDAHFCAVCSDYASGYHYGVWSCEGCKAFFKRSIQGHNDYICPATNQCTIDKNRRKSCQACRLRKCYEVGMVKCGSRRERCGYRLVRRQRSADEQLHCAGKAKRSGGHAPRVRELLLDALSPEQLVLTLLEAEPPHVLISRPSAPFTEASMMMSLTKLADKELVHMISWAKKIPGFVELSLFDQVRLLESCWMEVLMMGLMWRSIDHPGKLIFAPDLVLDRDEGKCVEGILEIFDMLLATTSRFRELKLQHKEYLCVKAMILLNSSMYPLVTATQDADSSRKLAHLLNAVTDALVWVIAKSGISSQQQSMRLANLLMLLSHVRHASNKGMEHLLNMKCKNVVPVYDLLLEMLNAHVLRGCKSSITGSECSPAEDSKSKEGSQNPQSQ", "test": "blockers of SRC-3 recruitment to ERβ – biochemical, ELISA, streptavidin-HRP readout, orthogonal assay, confirmation (AID 1060)"}, "Estrogen receptor": {"molecular_target": "T2, Estrogen receptor (Homo sapiens, UniProt P03372)", "T2 sequence (P03372 whole entry)": "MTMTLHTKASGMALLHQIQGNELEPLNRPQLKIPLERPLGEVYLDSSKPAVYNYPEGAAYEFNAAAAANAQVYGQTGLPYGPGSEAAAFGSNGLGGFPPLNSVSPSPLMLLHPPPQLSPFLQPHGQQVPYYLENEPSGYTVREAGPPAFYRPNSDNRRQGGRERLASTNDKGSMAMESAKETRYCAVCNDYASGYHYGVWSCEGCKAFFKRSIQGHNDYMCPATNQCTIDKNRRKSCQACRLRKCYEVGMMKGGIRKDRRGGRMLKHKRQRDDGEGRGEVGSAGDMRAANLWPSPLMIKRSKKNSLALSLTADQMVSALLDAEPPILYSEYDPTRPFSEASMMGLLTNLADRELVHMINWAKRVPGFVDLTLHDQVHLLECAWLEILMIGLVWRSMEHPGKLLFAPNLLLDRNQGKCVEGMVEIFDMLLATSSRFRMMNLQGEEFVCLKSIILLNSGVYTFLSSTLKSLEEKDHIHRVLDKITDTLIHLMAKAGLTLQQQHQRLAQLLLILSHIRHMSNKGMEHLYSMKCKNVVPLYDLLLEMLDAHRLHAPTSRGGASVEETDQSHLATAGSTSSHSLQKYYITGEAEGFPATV"}, "Streptokinase A": {"molecular_target": "T3, Streptokinase A (Streptococcus pyogenes serotype M1, UniProt P10520)", "T3 sequence (P10520 whole entry)": "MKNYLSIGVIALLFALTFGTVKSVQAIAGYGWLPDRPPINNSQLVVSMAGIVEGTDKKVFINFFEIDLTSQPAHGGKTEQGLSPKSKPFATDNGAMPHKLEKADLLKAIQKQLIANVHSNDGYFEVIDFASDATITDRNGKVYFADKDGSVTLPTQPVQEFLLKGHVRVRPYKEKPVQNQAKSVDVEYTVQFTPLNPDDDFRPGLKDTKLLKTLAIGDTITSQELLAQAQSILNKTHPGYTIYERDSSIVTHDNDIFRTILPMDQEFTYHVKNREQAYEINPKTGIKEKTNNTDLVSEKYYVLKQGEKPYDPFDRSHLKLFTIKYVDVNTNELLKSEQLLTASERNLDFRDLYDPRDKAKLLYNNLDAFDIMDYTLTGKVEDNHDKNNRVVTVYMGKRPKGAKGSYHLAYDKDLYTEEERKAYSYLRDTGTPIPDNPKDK", "test": "viability-normalized secreted streptokinase activity reduction – plasminogen activation absorbance, OD405, dose response (AID 1914)", "type": "functional, Streptococcus pyogenes M1 GAS"}, "Streptococcus": {"test_system": "Streptococcus", "test": "GAS UMAA2166 growth inhibition – luminescence, BacTiterGlo, counter-screen for streptokinase expression inhibitor project, dose response (AID 1915);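 note: potency for reduction of bacterial viability or growth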", "type": "functional, organism-based"}, "[15]": {"test_system": "Streptococcus sp. 'group A'", "test": "Streptococcus pyogenes SK(-)GAS viability under kanamycin – luminescence, BacTiterGlo, confirmation, counter-screen for streptokinase expression inhibitor project, dose response (AID 1900)", "type": "functional, organism-based"}}, "note": "Activity calls are given as the source filed them. Cut-off read from the data, not from the text of the source, for most assays here: actives have a measured EC50 and inactives only a lower limit.", "data": [{"compound": "Cc1cc(C)c(C(N)=O)c(Nc2cccc3ccccc23)n1", "values": [{"measurement": "IC50", "setting": "[1]", "value": "> 50 µM (not active)"}, {"measurement": "IC50", "setting": "[2]", "value": "> 20 µM (inactive)"}, {"measurement": "IC50", "setting": "[3]", "value": "> 50 µM (not active)"}]}, {"compound": "O=[N+]([O-])c1ccccc1-c1cc(-c2ccccc2)cc(-c2ccccc2)[n+]1Cc1ccccc1Cl.[O-][Cl+3]([O-])([O-])[O-]", "values": [{"measurement": "EC50", "setting": "[4]", "value": "> 120 µM (not active)"}, {"measurement": "EC50", "setting": "[5]", "value": "> 120 µM (not active)"}, {"measurement": "EC50", "setting": "[6]", "value": "> 60 µM (not active)"}, {"measurement": "EC50", "setting": "[7]", "value": "< 100 nM (active)"}, {"measurement": "AC50", "setting": "INS1", "value": "2.14 µM (active)"}, {"measurement": "EC50", "setting": "cells", "value": "74 nM (active)"}, {"measurement": "EC50", "setting": "[8]", "value": "11.3 µM (active)"}]}, {"compound": "C1CCC(OCCN2CCN(CCOC3CCCCC3)CC2)CC1", "values": [{"measurement": "EC50", "setting": "[6]", "value": "> 30 µM (not active)"}, {"measurement": "EC50", "setting": "[7]", "value": "< 100 nM (active)"}, {"measurement": "EC50", "setting": "cells", "value": "67 nM (active)"}]}, {"compound": "C#CCSc1nnc(-c2ccc(OC)cc2)o1", "values": [{"measurement": "EC50", "setting": "[9]", "value": "5.49 µM (active)"}, {"measurement": "EC50", "setting": "[10]", "value": "138 nM (active)"}, {"measurement": "EC50", "setting": "H4", "value": "> 120 µM (not active)"}, {"measurement": "EC50", "setting": "[11]", "value": "3.33 µM (active)"}, {"measurement": "EC50", "setting": "[12]", "value": "< 100 nM (inconclusive)"}, {"measurement": "EC50", "setting": "[13]", "value": "7.23 µM (active)"}]}, {"compound": "O=C(NCCSc1ccccc1)c1ccccc1", "values": [{"measurement": "EC50", "setting": "[9]", "value": "0.347 µM (active)"}, {"measurement": "EC50", "setting": "[10]", "value": "198 nM (active)"}, {"measurement": "EC50", "setting": "H4", "value": "> 120 µM (not active)"}, {"measurement": "EC50", "setting": "[11]", "value": "0.281 µM (active)"}, {"measurement": "EC50", "setting": "[12]", "value": "< 100 nM (inconclusive)"}]}, {"compound": "Nc1ccc(-n2c(N)c(C(=O)NCc3ccc4c(c3)OCO4)c3nc4ccccc4nc32)cc1", "values": [{"measurement": "IC50", "setting": "[14]", "value": "> 93.1 µM (not active)"}]}, {"compound": "CC(=O)C(C(C)=O)c1c(Cl)c(O)c(O)c2c(C(=O)c3ccccc3)coc12", "values": [{"measurement": "IC50", "setting": "[1]", "value": "> 50 µM (not active)"}, {"measurement": "IC50", "setting": "[3]", "value": "> 50 µM (not active)"}]}, {"compound": "N#CC1=C(N)OC2=C(CCC/C2=C/c2ccoc2)C1c1ccoc1", "note": "(stereo unspecified)", "values": [{"measurement": "IC50", "setting": "Estrogen receptor beta", "value": "3.99 µM (not active)"}, {"measurement": "IC50", "setting": "Estrogen receptor", "value": "10 µM (active)"}]}, {"compound": "Cc1ccc(N2C(=O)CC(Sc3nc[nH]n3)C2=O)cc1", "note": "(stereo unspecified)", "values": [{"measurement": "IC50", "setting": "[3]", "value": "> 50 µM (not active)"}]}, {"compound": "O=C(N/N=C/c1ccc([N+](=O)[O-])o1)c1cn(-c2ccccc2)nc1-c1ccc(F)cc1", "values": [{"measurement": "EC50", "setting": "[6]", "value": "> 60 µM (not active)"}, {"measurement": "EC50", "setting": "Streptokinase A", "value": "> 150 µM (not active)"}, {"measurement": "EC50", "setting": "[7]", "value": "< 100 nM (active)"}, {"measurement": "EC50", "setting": "Streptococcus", "value": "2.99 µM (active)"}, {"measurement": "EC50", "setting": "[15]", "value": "841 nM (active)"}, {"measurement": "EC50", "setting": "cells", "value": "30 nM (active)"}]}]}
